Assay results taken from ChEMBL document CHEMBL4483862, “Open-source discovery of chemical leads for next-generation chemoprotective antimalarials” (2018).

System: Plasmodium berghei
Test: Luciferase/luciferin-expressing antifolate-resistant parasites were used to infect a culture of HepG2 cells that were pre-incubated with compounds. Infected hepatocytes emit light due to the luciferase reaction. Assay results are presented as the percent inhibition of light emission compared to control. […]
Type: functional
Conditions: sporozoite; for IC90: read-out: LUCIFERASE INFECTION ASSAY - IC90

Compound | IC90 [µM] | further results
CCCCCCCCC/C(=N\O)c1ccccn1 | 11.9 | IC50 (HEPG2TOX_HILL_SLOPE 8.74, HEPG2TOX_R_SQUARED 0.63, PBLUC_HILL_SLOPE 40.5, PBLUC_R_SQUARED 0.34, read-out: LUCIFERASE INFECTION ASSAY - IC50): 11.3 µM
O=C1Nc2ccc([N+](=O)[O-])cc2/C1=N/NC(=S)NC1CCCCC1 | 3.82 | IC50 (HEPG2TOX_HILL_SLOPE 8.71, HEPG2TOX_R_SQUARED 0.815, PBLUC_HILL_SLOPE 16.7, PBLUC_R_SQUARED 0.29, read-out: LUCIFERASE INFECTION ASSAY - IC50): 3.35 µM
Cc1cc(C(=O)NNC(=O)c2ccc3ccccc3n2)c2cnn(Cc3cccs3)c2n1 | 9.16 | IC50 (HEPG2TOX_HILL_SLOPE 8.79, HEPG2TOX_R_SQUARED 0.448, PBLUC_HILL_SLOPE 5.17, PBLUC_R_SQUARED 0.697, read-out: LUCIFERASE INFECTION ASSAY - IC50): 5.99 µM
Cc1cc(C(=O)CN2C(=O)C(=O)N(Cc3ccccc3)C2=O)c(C)n1-c1ccc2c(c1)OCO2 | > 10 | IC50 (HEPG2TOX_HILL_SLOPE 8.65, HEPG2TOX_R_SQUARED 0.666, PBLUC_HILL_SLOPE 3.13, PBLUC_R_SQUARED 0.534, read-out: LUCIFERASE INFECTION ASSAY - IC50): 6.04 µM
COc1ccc(C2C3CCc4ccccc4C3=NN2CCO)cc1 (configuration not stated) | > 10.2 | IC50 (HEPG2TOX_HILL_SLOPE 8.7, HEPG2TOX_R_SQUARED 0.737, PBLUC_HILL_SLOPE 7.39, PBLUC_R_SQUARED 0.683, read-out: LUCIFERASE INFECTION ASSAY - IC50): > 10.2 µM
Cc1cc(C(=O)CNC(=O)Nc2ccccc2)c(C)n1-c1ccc(F)c(Cl)c1 | 9.57 | IC50 (HEPG2TOX_HILL_SLOPE 8.63, HEPG2TOX_R_SQUARED 0.403, PBLUC_HILL_SLOPE 1.87, PBLUC_R_SQUARED 0.488, read-out: LUCIFERASE INFECTION ASSAY - IC50): 2.96 µM
CC(=O)c1cccc(NC(=O)Nc2ccc3nc(-c4cccc(C(F)(F)F)c4)nn3c2)c1 | 9.17 | IC50 (HEPG2TOX_HILL_SLOPE 8.68, HEPG2TOX_R_SQUARED 0.208, PBLUC_HILL_SLOPE 3.77, PBLUC_R_SQUARED 0.543, read-out: LUCIFERASE INFECTION ASSAY - IC50): 5.11 µM
Brc1cnc2nc(-c3ccccc3)[nH]c2c1 | 7.03 | IC50 (HEPG2TOX_HILL_SLOPE 8.76, HEPG2TOX_R_SQUARED 0.602, PBLUC_HILL_SLOPE 4.6, PBLUC_R_SQUARED 0.128, read-out: LUCIFERASE INFECTION ASSAY - IC50): 4.36 µM
Cc1cc(N2CCN(Cc3nc(=O)c4cc(Cl)ccc4[nH]3)CC2)nc(C(C)C)n1 | > 10 | IC50 (HEPG2TOX_HILL_SLOPE 8.69, HEPG2TOX_R_SQUARED 0.562, PBLUC_HILL_SLOPE 3.21, PBLUC_R_SQUARED 0.576, read-out: LUCIFERASE INFECTION ASSAY - IC50): 5.79 µM
C/N=c1\scc(-c2ccc3c(c2)NC(=O)CO3)n1/N=C/c1cc(Br)c(O)c(OC)c1 | 7.81 | IC50 (HEPG2TOX_HILL_SLOPE 8.72, HEPG2TOX_R_SQUARED 0.934, PBLUC_HILL_SLOPE 4.3, PBLUC_R_SQUARED 0.314, read-out: LUCIFERASE INFECTION ASSAY - IC50): 4.68 µM
COc1cc(-c2cnc3cnc(-c4ccccc4N(C)C)cn23)ccc1O | > 9.16 | IC50 (HEPG2TOX_HILL_SLOPE 8.81, HEPG2TOX_R_SQUARED 0.374, PBLUC_HILL_SLOPE 9.99, PBLUC_R_SQUARED 0.0967, read-out: LUCIFERASE INFECTION ASSAY - IC50): 7.81 µM
CCOc1ccc(NC(=S)N/N=C/c2cc(Cl)cc([N+](=O)[O-])c2O)cc1 | > 10 | IC50 (HEPG2TOX_HILL_SLOPE 8.71, HEPG2TOX_R_SQUARED 0.133, PBLUC_HILL_SLOPE 2.29, PBLUC_R_SQUARED 0.38, read-out: LUCIFERASE INFECTION ASSAY - IC50): 6.7 µM
CC1Cc2ccccc2N1C(=O)c1cn(-c2ccccc2)nc1-c1ccc(F)cc1 (configuration not stated) | 9.94 | IC50 (HEPG2TOX_HILL_SLOPE 8.75, HEPG2TOX_R_SQUARED 0.907, PBLUC_HILL_SLOPE 3.93, PBLUC_R_SQUARED 0.478, read-out: LUCIFERASE INFECTION ASSAY - IC50): 5.68 µM
CC(C)(C)NC(=S)N/N=C/c1cc(I)cc(I)c1O | 4.23 | IC50 (HEPG2TOX_HILL_SLOPE 8.65, HEPG2TOX_R_SQUARED 0.588, PBLUC_HILL_SLOPE 9.82, PBLUC_R_SQUARED 0.5, read-out: LUCIFERASE INFECTION ASSAY - IC50): 3.38 µM
COc1ccccc1-c1cnn2ccc(Nc3ccccc3)nc12 | 2.14 | IC50 (HEPG2TOX_HILL_SLOPE 8.7, HEPG2TOX_R_SQUARED 0.948, PBLUC_HILL_SLOPE 3.38, PBLUC_R_SQUARED 0.62, read-out: LUCIFERASE INFECTION ASSAY - IC50): 1.12 µM
Cc1ccc(-c2cc(=O)n(-c3ccc(F)cc3)[nH]2)cc1 | 11.6 | IC50 (HEPG2TOX_HILL_SLOPE 8.74, HEPG2TOX_R_SQUARED 0.98, PBLUC_HILL_SLOPE 2.08, PBLUC_R_SQUARED 0.732, read-out: LUCIFERASE INFECTION ASSAY - IC50): 4.04 µM

Compound | IC90 [µM] | further results
COc1cc(/C=C(\C#N)c2cccn2C)cc(OC)c1OC | > 11.1 | IC50 (HEPG2TOX_HILL_SLOPE 8.79, HEPG2TOX_R_SQUARED 0.806, read-out: LUCIFERASE INFECTION ASSAY - IC50): > 11.1 µM
CN1CCN(c2ccc(-c3cn4c(-c5ccc6c(ccn6C)c5)cnc4cn3)cn2)CC1 | > 7.79 | IC50 (HEPG2TOX_HILL_SLOPE 8.77, HEPG2TOX_R_SQUARED 0.447, PBLUC_HILL_SLOPE 3.78, PBLUC_R_SQUARED 0.492, read-out: LUCIFERASE INFECTION ASSAY - IC50): 4.51 µM
Cc1ccc2nc(NC(=O)c3ccc(F)cc3)c(C(=O)NC3CCCCC3)n2c1 | 4.51 | IC50 (HEPG2TOX_HILL_SLOPE 8.64, HEPG2TOX_R_SQUARED 0.539, PBLUC_HILL_SLOPE 8.68, PBLUC_R_SQUARED 0.013, read-out: LUCIFERASE INFECTION ASSAY - IC50): 3.5 µM
CCN1/C(=C\C(=O)c2ccccc2Oc2ccccc2)C(C)(C)c2c1ccc1ccccc21 | 8.43 | IC50 (HEPG2TOX_HILL_SLOPE 8.78, HEPG2TOX_R_SQUARED 0.227, PBLUC_HILL_SLOPE 3.21, PBLUC_R_SQUARED 0.612, read-out: LUCIFERASE INFECTION ASSAY - IC50): 4.25 µM
O=C(NCCO)c1cccc(-c2cn3c(-c4ccc(Cl)cc4)cnc3cn2)c1 | 3.17 | IC50 (HEPG2TOX_HILL_SLOPE 8.8, HEPG2TOX_R_SQUARED 0.456, PBLUC_HILL_SLOPE 3.73, PBLUC_R_SQUARED 0.895, read-out: LUCIFERASE INFECTION ASSAY - IC50): 1.76 µM
COc1c(Br)cc([N+](=O)[O-])c(OC)c1C(=O)NC(=O)Nc1cc(C(F)(F)F)cc(C(F)(F)F)c1 | 5.15 | IC50 (HEPG2TOX_HILL_SLOPE 8.68, HEPG2TOX_R_SQUARED 0.501, PBLUC_HILL_SLOPE 19.7, PBLUC_R_SQUARED 0.399, read-out: LUCIFERASE INFECTION ASSAY - IC50): 4.61 µM
CN(Cc1ccc(Cl)s1)C(=O)Cn1ncc(Br)c(Br)c1=O | 8.7 | IC50 (HEPG2TOX_HILL_SLOPE 8.71, HEPG2TOX_R_SQUARED 0.0596, PBLUC_HILL_SLOPE 2.5, PBLUC_R_SQUARED 0.642, read-out: LUCIFERASE INFECTION ASSAY - IC50): 3.61 µM
CCc1cc(=O)n2nc(Cc3ccccc3)c(-c3ccccc3)c2[nH]1 | > 10 | IC50 (HEPG2TOX_HILL_SLOPE 8.68, HEPG2TOX_R_SQUARED 0.27, PBLUC_HILL_SLOPE 11.4, PBLUC_R_SQUARED 0.149, read-out: LUCIFERASE INFECTION ASSAY - IC50): 8.75 µM
C=CCn1c(COc2ccc(C(C)(C)C)cc2)nnc1SCC(=O)N(C)C1CCCCC1 | > 10 | IC50 (HEPG2TOX_HILL_SLOPE 8.72, HEPG2TOX_R_SQUARED 0.783, PBLUC_HILL_SLOPE 29.5, PBLUC_R_SQUARED 0.113, read-out: LUCIFERASE INFECTION ASSAY - IC50): 9.61 µM
Cc1cc2oc(=O)cc(COC(=O)c3ccccc3NCCO)c2cc1C | 5.07 | IC50 (HEPG2TOX_HILL_SLOPE 8.75, HEPG2TOX_R_SQUARED 0.762, PBLUC_HILL_SLOPE 95.5, PBLUC_R_SQUARED 0.164, read-out: LUCIFERASE INFECTION ASSAY - IC50): 4.95 µM
C=CCn1c(SCc2ccccn2)nc2sccc2c1=O | > 10 | IC50 (HEPG2TOX_HILL_SLOPE 8.76, HEPG2TOX_R_SQUARED 0.722, PBLUC_HILL_SLOPE 2.66, PBLUC_R_SQUARED 0.469, read-out: LUCIFERASE INFECTION ASSAY - IC50): 8.34 µM
OCCCNc1nn2c(-c3cccc(Cl)c3)cnc2s1 | > 10.7 | IC50 (HEPG2TOX_HILL_SLOPE 8.79, HEPG2TOX_R_SQUARED 0.819, PBLUC_HILL_SLOPE 13.4, PBLUC_R_SQUARED 0.184, read-out: LUCIFERASE INFECTION ASSAY - IC50): 9.8 µM
CC(O)c1ccc(-c2ccccc2NC(=O)c2ccccn2)s1 (configuration not stated) | > 10 | IC50 (HEPG2TOX_HILL_SLOPE 8.65, HEPG2TOX_R_SQUARED 0.867, read-out: LUCIFERASE INFECTION ASSAY - IC50): > 10 µM
COc1cc(/C=C2\SC(=O)N(CCNC(=O)c3cnccn3)C2=O)ccc1OC(F)F | > 10 | IC50 (HEPG2TOX_HILL_SLOPE 8.8, HEPG2TOX_R_SQUARED 0.871, PBLUC_HILL_SLOPE 1.47, PBLUC_R_SQUARED 0.589, read-out: LUCIFERASE INFECTION ASSAY - IC50): > 10 µM
Fc1ccc(N/N=C/Cc2nnnn2-c2ccccc2)cc1 | > 11.1 | IC50 (HEPG2TOX_HILL_SLOPE 8.77, HEPG2TOX_R_SQUARED 0.625, PBLUC_HILL_SLOPE 4.51, PBLUC_R_SQUARED 0.347, read-out: LUCIFERASE INFECTION ASSAY - IC50): 7.9 µM
